From PMC11173677, “Identification and Evaluation of Olive Phenolics in the Context of Amine Oxidase Enzyme Inhibition and Depression: In Silico Modelling and In Vitro Validation” (Molecules, 2024)

How the values were obtained:
[1] = tested on: T1, LSD1; assay: LSD1 activity in nuclear extracts of BJ cells stimulated with DEX; assay type: cell-based, human; details: DEX 50 μM 72 h, then TCP 5 μM or OLP, HT, HTA 50 μM for 48 h
T1 construct: nuclear proteins extracted from the BJ cultures were directly assayed for LSD1 activity; endogenous in cells; host or cells: BJ human foreskin fibroblasts (nuclear extract, DEX-stimulated)
Procedure: Histone demethylase LSD1 activity assay
4µL of nuclear extracts containing 5µg protein was added to designated strip wells with stably
captured LSD1 substrate (H3K4me2), followed by an additional 26µL of H3K4me2 (HG3)
substrate diluted in assay buffer (HG2). In no enzyme control wells, the 4µL of nuclear
extracts was replaced with 4µL of assay buffer. Blank wells contained 30µL of assay buffer.
A standard curve was generated by adding 1µL of standard (HG4) at incrementally increasing
concentrations (0.1-10ng/µL) to 29µL of assay buffer in designated standard wells. After all
wells were loaded appropriately, the assay plate was incubated away from light at room
temperature for 60 minutes. Following incubation, contents were aspirated and wells were
washed three times with 150µL of wash buffer (HG1). 50µL of capture antibody (HG5)
diluted at a 1:1000 ratio was then added to all wells before incubating at room temperature
for 60 minutes on a rotating platform. Well contents were then aspirated and washed four
times with 150µL of wash buffer. 50µL of detection antibody (HG6) diluted at a 1:1000 ration
was then added to each well. Assay plate was then incubated for a final time at room
temperature for 30 minutes. Well contents were aspirated again, followed by six washes with
150µL wash buffer. 50µL of fluoro-developer (HG7) was then added into each well and
allowed to develop away from light for 1-5 minutes. Fluorescence was then read on a
CLARIOstar Microplate Reader (BMG Labtech, Ortenberg Germany) at Ex/Em =

[2] = tested on: T2, MAO-A; assay: MAO-A activity assay in hESC-derived neurons stimulated with ATRA; assay type: cell-based, human; details: 1 μM ATRA 24 h, then TCP 5 μM, OLC 50 μM or OLP 50 μM for 24 h
T2 construct: endogenous in cells; host or cells: BJ human foreskin fibroblasts stimulated with DEX or HC
Procedure: (§1) An in vitro model of MDD was designed for stem cell-derived neuronal cells through incubation of 1 μM all-trans retinoic acid (Sigma-Aldrich PHR1187, St. Louis, MO, USA). All cell treatments were conducted in duplicate and replicated using independently differentiating neuronal plates.
(§2) Activity assays were commercially sourced from BioVision (Abcam, BioVision ab241031, Waltham, MA, USA) and were performed according to manufacturer’s instructions. The treatment groups were plated in duplicate on a black, flat 96-well microplate. The cells were homogenised in assay buffer using a microtube mixer at 4 °C and centrifuged at 10,000× g for 10 min. A Bradford assay was performed to determine the total protein concentration within each cell pellet (200 μg/well for BJ cells, 40 μg/well for hESC-derived neurons). Approximately 40 μL of supernatant was loaded into wells along with 10 μL of either […], or assay buffer for total MAO activity. A H2O2 standard was pipetted as supplied and 50 μL of reaction mix was pipetted into all wells. Using a CLARIOstar Plus Microplate Reader, (BMG Labtech, Ortenberg, Germany), fluorescence was measured kinetically at 25 °C for 60 min with Ex/Em = 535/587 nm.

[3] = tested on: T3, MAO-B; assay: MAO-B activity assay in hESC-derived neurons stimulated with ATRA; assay type: cell-based, human; details: 1 μM ATRA 24 h, then TCP 5 μM, OLC 50 μM or OLP 50 μM for 24 h
T3 construct: endogenous in cells; host or cells: BJ human foreskin fibroblasts stimulated with DEX or HC
Procedure: as §1, §2

[4] = tested on: total MAO; assay: Total MAO activity assay in hESC-derived neurons stimulated with ATRA; assay type: cell-based, human; details: 1 μM ATRA 24 h, then TCP 5 μM, OLC 50 μM or OLP 50 μM for 24 h
Procedure: as §1, §2

[5] = target: MAO-A; set-up: method as in PMID 17915852; details: read-out: inhibition constant, MAO-A; cited from earlier work
[6] = target: MAO-B; set-up: method as in PMID 17915852; details: read-out: inhibition constant, MAO-B; cited from earlier work
[7] = target: purified LSD1 (Homo sapiens, UniProt O60341); assay: LSD1 direct screening assay (Epigentek inhibitory screening kit); assay type: biochemical; details: direct incubation with purified LSD1, Epigentek kit; read-out: IC50, inhibition of LSD1
Procedure: Fluorescence was measured using a CLARIOstar Plus Microplate Reader (BMG Labtech, Ortenberg, Germany) at excitation and emission wavelengths of 530 nm and 590 nm, respectively (Ex/Em = 530/590 nm).

[8] = target: T4, LSD1 (Homo sapiens, UniProt O60341); assay: LSD1 fluorescence coupling enzyme assay (Reaction Biology Corporation); assay type: biochemical; details: Reaction Biology Corp., 30 min pre-incubation, 10 μM histone H3(1-21)K4me2 peptide substrate; read-out: IC50, LSD1 demethylase activity
T4 construct: Reaction Biology Corporation (performed the assay)
Procedure: The inhibitory activity of HCl 489479, OLC, and OLP was measured using a fluorescence coupling enzyme assay (performed by Reaction Biology Corporation). […] All compounds were pre-incubated for 30 min with the enzyme before the addition of 10 μM histone H3(1-21)K4me2 peptide substrate to start the reaction. Fluorescence was measured using an EnVision Multimode Plate Reader at Ex/Em = 535/590.

[9] = target: T5, purified MAO-A (Homo sapiens, UniProt P21397); assay: MAO-A direct screening assay (inhibitor screening kit); assay type: biochemical; details: purified enzyme; read-out: IC50, inhibition of MAO-A
T5 construct: purchased Sigma-Aldrich MAK295
T5 sequence (P21397 1-527): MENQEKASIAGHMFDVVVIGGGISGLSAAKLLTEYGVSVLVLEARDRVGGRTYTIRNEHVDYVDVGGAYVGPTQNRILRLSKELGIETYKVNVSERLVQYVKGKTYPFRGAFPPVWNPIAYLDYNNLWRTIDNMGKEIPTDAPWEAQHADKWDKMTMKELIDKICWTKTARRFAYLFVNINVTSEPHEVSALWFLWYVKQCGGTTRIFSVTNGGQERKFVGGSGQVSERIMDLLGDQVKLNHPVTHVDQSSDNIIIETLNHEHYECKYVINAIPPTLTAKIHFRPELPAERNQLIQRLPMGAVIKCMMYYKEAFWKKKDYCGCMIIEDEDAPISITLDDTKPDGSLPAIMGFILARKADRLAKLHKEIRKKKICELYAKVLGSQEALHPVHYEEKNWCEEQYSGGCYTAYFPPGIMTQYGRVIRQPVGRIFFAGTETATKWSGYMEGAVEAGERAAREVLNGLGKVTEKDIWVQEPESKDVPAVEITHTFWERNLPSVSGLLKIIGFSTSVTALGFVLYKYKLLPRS
Procedure: (§3) The assays were conducted for MAO-A and MAO-B according to the manufacturer’s instructions.

[10] = tested on: H3K4 mono-methylation; assay: H3K4 mono-methylation in BJ cells (Western blotting); assay type: cell-based, human; details: 50 μM, 48 h, compared to untreated cells; effects more pronounced with DEX
Procedure: As described in the Supplementary Information, nuclear proteins extracted from the BJ cultures were directly assayed for LSD1 activity (Epigentek P-3076, Farmingdale, NY, USA). Fluorescence was read on a CLARIOstar Microplate Reader (BMG Labtech, Ortenberg, Germany) at Ex/Em = 530/590 nm (Figure S4). Histone proteins were extracted from the treated cultures and were analysed through Western blotting. The mono-methylation status of lysine on histone 3 (H3K4) was determined via immunodetection (Table S6).
100µL of Nuclear Extraction Buffer containing 0.2µL 1M DTT and 0.4µL PIC was then added to the remaining nuclei-containing pellets. Full resuspension was achieved through multiple rounds of vigorous vortexing and ice incubations (to maintain protein integrity). Once the entire pellet was visibly resuspended in NEB, tubes were centrifuged at 16,000g for 10 minutes. The resulting supernatant containing the nuclear extract fraction was transferred to clean 0.5mL tubes and stored at -80°C.
Acid extraction of histone proteins
Cells were washed in 10mL of pre-chilled PBS (1X) and detached from flask surface via mechanical disruption using a cell scraper. Cell solution was then transferred into a 15mL tube and centrifuged at 150g for 10 minutes. Supernatant was then discarded and the remaining cell pellet resuspended in 0.5mL PBS (1X) and transferred into a 1.5mL microcentrifuge tube. Cells were then centrifuged at 9400g for 20 seconds, after which the supernatant was removed and discarded. The remaining pellet was then briefly resuspended in 600µL of acid extraction lysis buffer (10mM KCl, 10mM HEPES, […]) containing cOmplete™ Mini Protease Inhibitor Cocktail (Sigma-Aldrich, Roche 11836153001, MO USA) and 0.3µL 1M DTT. This will cause cells to pre-swell, resulting in a reduced amount of PBS (1X) remaining in the microcentrifuge tube that may deter maximal cell lysis capacity. Cells were then centrifuged at 9400g for 20 seconds with the resultant supernatant aspirated and discarded. […]

[11] = tested on: human skin fibroblasts; set-up: method as in PMID 37432217; details: in comparison to untreated controls, at certain doses; cited from earlier work
[12] = target: T6, purified MAO-B (Homo sapiens, UniProt P27338); assay: MAO-B direct screening assay (inhibitor screening kit); assay type: biochemical; details: purified enzyme; read-out: IC50, inhibition of MAO-B
T6 construct: purchased Sigma-Aldrich MAK296
T6 sequence (P27338 1-520): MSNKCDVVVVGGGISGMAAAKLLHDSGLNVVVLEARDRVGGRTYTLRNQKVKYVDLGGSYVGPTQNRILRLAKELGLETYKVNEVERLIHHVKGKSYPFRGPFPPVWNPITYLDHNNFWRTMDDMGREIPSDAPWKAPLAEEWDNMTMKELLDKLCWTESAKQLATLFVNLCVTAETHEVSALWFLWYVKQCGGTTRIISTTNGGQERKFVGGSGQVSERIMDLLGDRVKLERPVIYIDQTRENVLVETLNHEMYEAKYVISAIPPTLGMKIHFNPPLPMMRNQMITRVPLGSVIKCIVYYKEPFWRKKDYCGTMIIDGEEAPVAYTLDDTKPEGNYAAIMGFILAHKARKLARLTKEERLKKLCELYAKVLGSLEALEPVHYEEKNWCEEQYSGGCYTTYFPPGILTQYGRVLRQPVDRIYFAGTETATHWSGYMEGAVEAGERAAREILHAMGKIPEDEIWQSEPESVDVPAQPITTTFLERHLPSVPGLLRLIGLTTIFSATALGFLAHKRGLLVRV
Procedure: as §3

[13] = tested on: MAO-A; set-up: method as in PMID 30809547; details: cited from earlier work
[14] = tested on: MAO-B; set-up: method as in PMID 30809547; details: cited from earlier work

With `N[C@@H]1C[C@H]1c1ccccc1` (racemic) [TCP, tranylcypromine, reference compound] the “LSD1 activity in BJ cultures stimulated with DEX” value (shortened to “LSD1 activity”) [1] was “significant reduction”, the “MAO-A activity in hESC-derived neurons” value [2] was “significantly reduced” and the “MAO-B activity in hESC-derived neurons” value [3] was “significantly reduced”. For the same compound, the “total MAO activity in hESC-derived neurons” value [4] was “significantly reduced”.
In the case of `CNCc1cc(=O)oc2cc(OCc3cccc(Cl)c3)ccc12` [7-(3-chlorobenzyloxy)-4-(methylamino)methyl-coumarin], the Ki [5] is given as 15700 nM and the Ki [6] is given as 100 nM.
For `O=Cc1cc(=O)oc2cc(OCc3cccc(Cl)c3)ccc12` [7-(3-chlorobenzyloxy)-4-carboxaldehyde-coumarin], the Ki [5] is given as 11000 nM and the Ki [6] is given as 400 nM.
With `OCCc1ccc(O)c(O)c1` [HT, hydroxytyrosol] the IC50 [7] was 39 nM, the IC50 [8] was 570 nM and the IC50 [9] was 430 nM. The “LSD1 activity” value [1] was “significant reduction”, the “baseline levels of H3K4 mono-methylation in BJ cells” value [10] was “increased” and the “growth capacity of human skin fibroblasts” value [11] was “significantly increased”.
`CC(=O)OCCc1ccc(O)c(O)c1` [HTA, hydroxytyrosol acetate] gave an IC50 [7] of 1100 nM, an IC50 [8] of 31 nM and an IC50 [9] of 700 nM. For the same compound, the IC50 [12] was 91400 nM, the “LSD1 activity” value [1] was “significant reduction” and the “baseline levels of H3K4 mono-methylation in BJ cells” value [10] was “increased”.
In the case of `COc1cc(/C=C/c2ccc(O)cc2)cc(OC)c1` [pterostilbene], the IC50 [13] is listed as 13400 nM and the IC50 [14] is listed as 138 nM.
For `Oc1ccc(/C=C/c2cc(O)cc(O)c2)cc1` [resveratrol], the IC50 [13] is given as 313 nM and the IC50 [14] is given as 15800 nM.
In the case of isoeugenol, the IC50 [14] is listed as 102000 nM.
